# Source: US9399639B2, “Substituted azaindole compounds, salts, pharmaceutical compositions thereof and methods of use” (Calitor Sciences, LLC, priority 2012, dated 2016)
# Experiments:
# Colo-205 Tumor Xenograft = assay: Colo-205 tumor xenograft model, tumor growth inhibition; type: in vivo, athymic nude mice; conditions: Colo-205 xenograft, p.o., 15 days
# Method: The efficacy of compounds disclosed herein is evaluated in a standard murine model of tumorigenesis. Human tumor cells (i.e., Colo-205 Tumor Xenograft models) are expended in culture, harvested, and injected subcutaneously onto the rear flank of 6-7 week old female athymic nude mice (BALB/cA nu/nu, Shanghai SLAC Laboratory Animal, Co.) (n=10 for vehicle group, n=8 for each dosing group). When tumor reaches a volume of 100-250 mm^3, animals are randomly divided into vehicle control (for example, 5% PEG400+5% Solutol HS 15 in water or 5% EtOH+5% CremophorEL+1% HCl (11.7%), pH 2.2 in water) and compound groups. Subsequent administration of compound by oral gavage (for example, 6-60 mpk/dose, dissolved in 5% PEG400+5% Solutol HS 15 in water or 5% EtOH+5% CremophorEL+1% HCl (11.7%), pH 2.2 in water) begins anywhere from day 0 to day 15 post tumor cell challenge and generally continues with once a day for the duration of the experiment.
# Progression of tumor growth is assessed by tumor volumes and recorded as a function of time. The long (L) and short (W) axes of the subcutaneous tumors are measured with calipers twice weekly, and the tumor volume (TV) calculated as (L×W^2)/2). TGI is calculated from the difference between the median tumor volumes of vehicle-treated and drug-treated mice, expressed as a percentage of the median tumor volume of the vehicle-treated control group, by the following relation:
# Initial statistical analysis is done by repeated measures analysis of variance (RMANOVA), Followed by Scheffe post-hoc testing for multiple comparisons. Vehicle alone (2% HPMC+1% Tween-80, or the like) is the negative control.
# The compouds described herein were also administrated orally (p.o.) once a day (QD) or (BID) for 15 days in Colo-205 xenograft animal model. At doses of 20 mg/kg, the compouds produced statistically significant inhibition of growth of certain tumors grown subcutaneously in athymic nude mice.
# [1] = Compound stability in human liver microsomes; type: in vitro ADME; conditions: 1 μM
# Method: (§1) Human or rat liver microsomes incubations were conducted in duplicate in polypropylene tubes. […] Compounds were dissolved in DMSO and diluted with PBS such that the final concentration of DMSO was 0.05%. The enzymatic reactions were commenced with the addition of protein after a 3 min preincubation and incubated in a water bath open to the air at 37° C. Reactions were terminated at various time points (0, 5, 10, 15, 30, 60 min) by adding equal volume of ice-cold acetonitrile. The samples were stored at −80° C. until LC/MS/MS assays.
# (§2) The concentrations of compounds in the incubation mixtures of human (or rat) liver microsomes were determined by a LC/MS/MS method. The ranges of the linearity in the concentration range were determined for each tested compounds.
# (§3) A parallel incubation was performed using denatured microsomes as the negative control, and reactions were terminated at various time points (for example, 0, 15, 60 min) after incubation at 37° C.
# (§4) Dextromethorphan (70 μM) was selected as the positive control, and reactions were terminated at various time points (0, 5, 10, 15, 30, 60 min) after incubation at 37° C. Both positive and negative control samples were included in each assay to ensure the integrity of the microsomal incubation system.
# (§5) Alternatively, the stability of some of the compounds disclosed herein in human (or rat) liver microsomes were also conducted in the following protocol. The incubations were conducted in duplicate in polypropylene tubes. […] Compounds were dissolved in DMSO and diluted with K-buffer such that the final concentration of DMSO was 0.2%. The enzymatic reactions were commenced with the addition of 15 μL of NADPH (final concentration: 2 mM) after 10 min preincubation and incubated in a 37° C. incubator. Reactions were terminated at various time points (0, 15, 30, 60 min) by adding 135 μL acetonitrile (contain IS). Protein is removed by centrifugation with 4,000 rpm, 10 min.
# (§6) In the above protocol, ketanserin (1 μM) was selected as the positive control, and reactions were terminated at various time points (0, 15, 30, 60 min) after incubation at 37° C. The positive control sample was included in each assay to ensure the integrity of the microsomal incubation system.
# (§7) The concentrations of compounds in liver microsome incubations were plotted as a percentage of the relevant zero time point control for each reaction. The in vivo CLint were extrapolated (ref: Naritomi et al., Prediction of human hepatic clearance from in vivo animal experiments and in vitro metabolic studies with liver microsomes from animals and humans, Drug Metab. Dispos., 2001, 29: 1316-1324.) […]
# [2] = Compound stability in rat liver microsomes; type: in vitro ADME; conditions: 1 μM
# Method: as §1, §2, §3, §4, §5, §6, §7
# B-Raf = B-Raf V600E vs wild-type, purified kinase assays; cited from earlier work
# [3] = Pharmacokinetics in SD rats; type: in vivo; conditions: vemurafenib dosed
# Excerpt: (§8) Compounds disclosed herein are prodrugs. […] However, the prodrug compounds are modified in vivo to produce a parent compound that has known inhibitory activities against certain protein kinases. Kinase inhibition activity of prodrug compounds is established by quantitating the blood or plasma levels of parent compound after prodrug administration. In vivo blood or plasma levels are reported as Cmax (maximum blood or plasma concentration) and AUC (area under curve from zero to a certain period of time or infinity, a measure of total drug exposure). Methods of measuring Cmax, AUC and other pharmacokinetic parameters in dogs and rats are provided in Example C.
# (§9) The LC/MS/MS system used in the analysis consists of an Agilent 1200 Series vacuum degasser, binary pump, well-plate autosampler, thermostated column compartment, the Agilent G6430 TripleQuadrupole Mass Spectrometer with an electrospray ionization (ESI) source. Quantitative analysis was carried out using MRM mode. The parameters for MRM transitions are in the Table A.
# (§10) An Agilent XDB-C18, 2.1×30 mm, 3.5 μM column was used for the analysis. 5 μL of the samples were injected. Analysis condition: The mobile phase was 0.1% formic acid in water (A) and 0.1% formic acid in methanol (B). The flow rate was 0.4 mL/min. And the gradient of Mobile phase was in the Table B.
# (§11) Alternatively, an Agilent 6330 series LC/MS/MS spectrometer equipped with G1312A binary pumps, a G1367A autosampler and a G1314C UV detector was used in the analysis. An ESI source was used on the LC/MS/MS spectrometer. The analysis was done in positive ion mode as appropriate and the MRM transition for each analyte was optimized using standard solution. A Capcell MP-C18 100×4.6 mm I.D., […] column (Phenomenex, Torrance, Calif., USA) was used during the analysis. The mobile phase was 5 mM ammonia acetate, 0.1% MeOH in water (A): 5 mM ammonia acetate, 0.1% MeOH in acetonitrile (B) (70:30, v/v). The flow rate was 0.6 mL/min. Column was maintained at ambient temperature. 20 μL of the samples were injected.
# (§12) Selected compounds of the invention and Vemurafenib were assessed in pharmacokinetic studies in mice, rats, dogs or monkeys. The compounds were administered as a water solution, 2% HPMC+1% TWEEN® 80 in water solution, 5% DMSO+5% solutol in saline, 4% MC or capsule. For the intravenous administration, the animals were generally given at 1 or 2 mg/kg dose. For the oral (p.o.) dosing, mice and rats were generally given 5 or 10 mg/kg dose, and dogs and monkeys were generally given 7-100 mg/kg dose. The blood samples (0.3 mL) were drawn at 0.25, 0.5, 1.0, 2.0, 3.0, 4.0, 6.0, 8.0, 12 and 24 h time points or 0.083, 0.25, 0.5, 1.0, 2.0, 4.0, 6.0, 8.0 and 24 h time points and centrifuged at 3,000 or 4000 rpm for 2 to 10 min. The plasma solutions are collected and stored at −20° C. or −70° C. before analyzed by LC/MS/MS as described above.
# [4] = Pharmacokinetics in beagle dogs; type: in vivo; conditions: vemurafenib dosed
# Excerpt: as §8, §9, §10, §11, §12
# [5] = cited from earlier work
# [6] = Sprague-Dawley, rat, plasma, IV 1 mg/kg
# [7] = Sprague-Dawley, rat, plasma, PO 10 mg/kg
Human T1/2 [1],Rat T1/2 [2],SMILES,TGI % (on the last day of dosing) (Colo-205 Tumor Xenograft; 6 mg/kg/qd) [%],TGI % (on the last day of dosing) (Colo-205 Tumor Xenograft; 20 mg/kg/bid) [%],TGI % (on the last day of dosing) (Colo-205 Tumor Xenograft; 20 mg/kg/qd) [%],TGI % (on the last day of dosing) (Colo-205 Tumor Xenograft; 60 mg/kg/qd) [%],further results
∞,∞,"CCCS(=O)(=O)Nc1ccc(F)c(C(=O)c2cn(COP(=O)([O-])[O-])c3ncc(-c4ccc(Cl)cc4)cc23)c1F.[Na+].[Na+] [Ex. 25, sodium (5-(4-chlorophenyl)-3-(2,6-difluoro-3-(propylsulfonamido)benzoyl)-1H-pyrrolo[2,3-b]pyridin-1-yl)methyl phosphate]",41,95,59,108,
∞,∞,"CCCS(=O)(=O)Nc1ccc(F)c(C(=O)c2cn(C(C)OP(=O)([O-])[O-])c3ncc(-c4ccc(Cl)cc4)cc23)c1F.[Na+].[Na+] (centres unmarked) [Ex. 32, sodium 1-(5-(4-chlorophenyl)-3-(2,6-difluoro-3-(propylsulfonamido)benzoyl)-1H-pyrrolo[2,3-b]pyridin-1-yl)ethyl phosphate]",29,102,68,110,
,,"CCCS(=O)(=O)Nc1ccc(F)c(C(=O)c2c[nH]c3ncc(-c4ccc(Cl)cc4)cc23)c1F [Vemurafenib, N-(3-(5-(4-chlorophenyl)-1H-pyrrolo[2,3-b]pyridine-3-carbonyl)-2,4-difluorophenyl)propane-1-sulfonamide]",33,101,73,104,"selectivity for the V600E mutation over the wild-type kinase (B-Raf): 3 fold; F ([3]; PO 10 mg/kg): 104%; AUC(0-t) [3, 6]: 25200 ng·h/mL; half-life [3, 6]: 3.75 h; AUC(0-t) [3, 7]: 261000 ng·h/mL; Cmax [3, 7]: 25400 ng/mL; Tmax [3, 7]: 4 h; half-life [3, 7]: 3.54 h; F ([4]; PO 10 mg/kg): 33.4%; AUC(0-t) ([4]; dog, plasma, IV 1 mg/kg): 4880 ng·h/mL; half-life ([4]; dog, plasma, IV 1 mg/kg): 1.59 h; AUC(0-t) ([4]; dog, plasma, PO 10 mg/kg): 16500 ng·h/mL; Cmax ([4]; dog, plasma, PO 10 mg/kg): 2150 ng/mL; Tmax ([4]; dog, plasma, PO 10 mg/kg): 2 h; half-life ([4]; dog, plasma, PO 10 mg/kg): 3.9 h; solubility in water [5]: low solubility in water"
